Assay results published in patent publication US12152020B2, “Pesticidally active azole-amide compounds” (SYNGENTA PARTICIPATIONS AG, priority 2018, dated 2024).

What was measured:
Type in all cases: in vivo
[1] = system: Myzus persicae (Green Peach Aphid); assay: Example B6: Myzus persicae feeding/contact activity, sunflower leaf discs; conditions: foliar, 144 h, application rate of 200 ppm, aphid population of mixed ages, 6 days after infestation
Experimental: Example B6: Myzus persicae (Green Peach Aphid): Feeding/Contact Activity
(§1) Sunflower leaf discs were placed onto agar in a 24-well microtiter plate and sprayed with aqueous test solutions prepared from 10′000 ppm DMSO stock solutions. After drying, the leaf discs were infested with an aphid population of mixed ages. The samples were assessed for mortality 6 days after infestation.

[2] = system: Plutella xylostella (Diamond Back Moth); assay: Example B5: Plutella xylostella, artificial diet in 24-well plates, eggs; conditions: 192 h, application rate of 200 ppm, 8 days after infestation, in comparison to untreated samples, read-out: effect in at least one of the two categories (mortality or growth inhibition)
Experimental: Example B5: Plutella xylostella (Diamond Back Moth)
24-well microtiter plates with artificial diet were treated with aqueous test solutions prepared from 10′000 ppm DMSO stock solutions by pipetting. After drying, Plutella eggs were pipetted through a plastic stencil onto a gel blotting paper and the plate was closed with it. The samples were assessed for mortality and growth inhibition in comparison to untreated samples 8 days after infestation.
The following compounds gave an effect of at least 80% in at least one of the two categories (mortality or growth inhibition) at an application rate of 200 ppm: • P1, P2, P3, P4, P5, P7, P8, P9, P14, P15, P16, P17, P18, P21, P22, P23, P24, P25, P27, P28, P29, P30, P31, P32, P33, P34, P35, P36

[3] = system: Myzus persicae (Green Peach Aphid); assay: Example B8: Myzus persicae intrinsic activity, sucrose solution under Parafilm, 24-well; conditions: 120 h, test rate of 12 ppm, 5 days after infestation
Source text: Example B8: Myzus persicae (Green Peach Aphid): Intrinsic Activity
Test compounds prepared from 10′000 ppm DMSO stock solutions were applied by pipette into 24-well microtiter plates and mixed with sucrose solution. The plates were closed with a stretched Parafilm. A plastic stencil with 24 holes was placed onto the plate and infested pea seedlings were placed directly on the Parafilm. The infested plate was closed with a gel blotting paper and another plastic stencil and then turned upside down. The samples were assessed for mortality 5 days after infestation.

[4] = system: Diabrotica balteata (Corn Root Worm); assay: Example B1: Diabrotica balteata, maize sprouts sprayed, L2 larvae; conditions: 96 h, application rate of 200 ppm, 4 days after infestation, in comparison to untreated samples, read-out: effect in at least one of the two categories (mortality or growth inhibition)
Experimental: Example B1: Diabrotica balteata (Corn Root Worm)
Maize sprouts placed onto an agar layer in 24-well microtiter plates were treated with aqueous test solutions prepared from 10′000 ppm DMSO stock solutions by spraying. After drying, the plates were infested with L2 larvae (6 to 10 per well). The samples were assessed for mortality and growth inhibition in comparison to untreated samples 4 days after infestation.
The following compounds gave an effect of at least 80% in at least one of the two categories (mortality or growth inhibition) at an application rate of 200 ppm: • P2, P3, P4, P5, P6, P7, P8, P14, P15, P16, P17, P18, P19, P20, P21, P22, P23, P24, P25, P27, P28, P29, P30, P31, P32, P33, P34, P35

[5] = system: Thrips tabaci (Onion thrips); assay: Example B12: Thrips tabaci feeding/contact activity, sunflower leaf discs; conditions: foliar, 144 h, application rate of 200 ppm, thrips population of mixed ages, 6 days after infestation
Experimental: Example B12: Thrips tabaci (Onion thrips): Feeding/Contact Activity
as §1, with “on” for “onto”, “in” for “in a”, “plates” for “plate”, “drying” for “drying,”, “a thrips” for “an aphid”

[6] = system: Plutella xylostella (Diamondback Moth); assay: Example B14: Plutella xylostella, artificial diet in 96-well plates, eggs; conditions: 216 h, application rate of 500 ppm, 9 days after infestation
Experimental: Example B14: Plutella xylostella (Diamondback Moth)
96-well microtiter plates containing artificial diet were treated with aqueous test solutions, prepared from 10′000 ppm DMSO stock solutions, by a liquid handling robot. After drying, eggs (˜30 per well) were infested onto a netted lid which was suspended above the diet. The eggs hatch and L1 larvae move down to the diet. The samples were assessed for mortality 9 days after infestation.
The following compounds gave an effect of at least 80% average mortality at an application rate of 500 ppm: • P2, P3, P5, P6, P7, P9, P15, P16, P17, P18, P20, P22, P24, P25, P30, P31, P32, P33, P38.

[7] = system: Euschistus heros (Neotropical Brown Stink Bug); assay: Example B2: Euschistus heros, soybean leaves sprayed, N2 nymphs; conditions: 120 h, application rate of 200 ppm, 5 days after infestation, in comparison to untreated samples, read-out: effect in at least one of the two categories (mortality or growth inhibition)
Experimental: Example B2: Euschistus heros (Neotropical Brown Stink Bug)
Soybean leaves on agar in 24-well microtiter plates were sprayed with aqueous test solutions prepared from 10′000 ppm DMSO stock solutions. After drying the leaves were infested with N2 nymphs. The samples were assessed for mortality and growth inhibition in comparison to untreated samples 5 days after infestation.
The following compounds gave an effect of at least 80% in at least one of the two categories (mortality or growth inhibition) at an application rate of 200 ppm: • P1, P2, P3, P7, P11, P12, P16, P17, P18, P22, P25, P29, P32, P33, P37, P38

[8] = system: Spodoptera littoralis (Egyptian Cotton Leaf Worm); assay: Example B9: Spodoptera littoralis, cotton leaf discs sprayed, L1 larvae; conditions: foliar, 72 h, application rate of 200 ppm, five L1 larvae, 3 days after infestation, in comparison to untreated samples, read-out: control in at least one of the categories (mortality, anti-feedant effect, or growth inhibition)
Experimental: Example B9: Spodoptera littoralis (Egyptian Cotton Leaf Worm)
Cotton leaf discs were placed onto agar in 24-well microtiter plates and sprayed with aqueous test solutions prepared from 10′000 ppm DMSO stock solutions. After drying the leaf discs were infested with five L1 larvae. The samples were assessed for mortality, anti-feeding effect, and growth inhibition in comparison to untreated samples 3 days after infestation. Control of Spodoptera littoralis by a test sample is given when at least one of the categories mortality, anti-feedant effect, and growth inhibition is higher than the untreated sample.

[9] = system: Myzus persicae (Green Peach Aphid); assay: Example B13: Myzus persicae, sucrose solution under Parafilm, 96-well; conditions: 120 h, application rate of 50 ppm, 5 days after infestation
Source text: Example B13: Myzus persicae (Green Peach Aphid)
Test compounds prepared from 10′000 ppm DMSO stock solutions were applied by a liquid handling robot into 96-well microtiter plates and mixed with a sucrose solution. Parafilm was stretched over the 96-well microtiter plate and a plastic stencil with 96 holes was placed onto the plate. Aphids were sieved into the wells directly onto the Parafilm. The infested plates were closed with a gel blotting card and a second plastic stencil and then turned upside down. The samples were assessed for mortality 5 days after infestation.

[10] = system: Myzus persicae (Green Peach Aphid); assay: Example B7: Myzus persicae systemic activity, pea seedling roots in test solution; conditions: 144 h, test rate of 24 ppm, 6 days after placing seedlings into test solutions
Experimental: Example B7: Myzus persicae (Green Peach Aphid): Systemic Activity
Roots of pea seedlings infested with an aphid population of mixed ages were placed directly into aqueous test solutions prepared from 10′000 DMSO stock solutions. The samples were assessed for mortality 6 days after placing seedlings into test solutions.

[11] = system: Frankliniella occidentalis (Western Flower Thrips); assay: Example B3: Frankliniella occidentalis feeding/contact activity, sunflower leaf discs; conditions: foliar, 168 h, application rate of 200 ppm, population of mixed ages, 7 days after infestation
Experimental: Example B3: Frankliniella occidentalis (Western Flower Thrips):Feeding/Contact Activity
Sunflower leaf discs were placed on agar in 24-well microtiter plates and sprayed with aqueous test solutions prepared from […] stock solutions. After drying the leaf discs were infested with a Frankliniella population of mixed ages. The samples were assessed for mortality 7 days after infestation.

[12] = system: Chilo suppressalis (Striped Rice Stemborer); assay: Example B4: Chilo suppressalis, artificial diet, L2 larvae; conditions: 144 h, application rate of 200 ppm, 6 days after infestation, in comparison to untreated samples, read-out: control in at least one of the categories (mortality, anti-feedant effect, or growth inhibition)
Experimental: Example B4: Chilo suppressalis (Striped Rice Stemborer)
24-well microtiter plates with artificial diet were treated with aqueous test solutions prepared from 10′000 ppm DMSO stock solutions by pipetting. After drying, the plates were infested with L2 larvae (6-8 per well). The samples were assessed for mortality, anti-feeding effect, and growth inhibition in comparison to untreated samples 6 days after infestation. Control of Chilo suppressalis by a test sample is given when at least one of the categories mortality, anti-feedant effect, and growth inhibition is higher than the untreated sample.

CNc1nc(C(C)N(C)C(=O)c2cc(C(F)(F)F)cc(C(F)(F)F)c2)n(-c2ncccn2)n1 (stereo not shown) [Compound P18, N-methyl-N-[1-[5-(methylamino)-2-pyrimidin-2-yl-1,2,4-triazol-3-yl]ethyl]-3,5-bis(trifluoromethyl) benzamide]
≥ 80%: mortality at 200 ppm [1] | percent effect (mortality or growth inhibition) at 200 ppm [2] | mortality at 12 ppm [3] | percent effect (mortality or growth inhibition) at 200 ppm [4] | mortality at 200 ppm [5] | mortality at 500 ppm [6] | percent effect (mortality or growth inhibition) at 200 ppm [7] | percent control (mortality, anti-feedant effect or growth inhibition) at 200 ppm [8] | mortality at 50 ppm [9]

CC(c1nc(N(C)C)nn1-c1ncccn1)N(C)C(=O)c1cc(C(F)(F)F)cc(C(F)(F)F)c1 (stereo not shown) [Compound P16, N-[1-[5-(dimethylamino)-2-pyrimidin-2-yl-1,2,4-triazol-3-yl]ethyl]-N-methyl-3,5-bis(trifluoromethyl) benzamide]
≥ 80%: mortality at 24 ppm [10] | mortality at 200 ppm [1] | percent effect (mortality or growth inhibition) at 200 ppm [2] | mortality at 12 ppm [3] | percent effect (mortality or growth inhibition) at 200 ppm [4] | mortality at 500 ppm [6] | percent effect (mortality or growth inhibition) at 200 ppm [7] | mortality at 200 ppm [11] | percent control (mortality, anti-feedant effect or growth inhibition) at 200 ppm [8] | mortality at 50 ppm [9]

CC(c1nc(I)nn1-c1ncccn1)N(CC1CC1)C(=O)c1cc(C(F)(F)F)cc(C(F)(F)F)c1 (stereo not shown) [Compound P5, N-(cyclopropylmethyl)-N-[1-(5-iodo-2-pyrimidin-2-yl-1,2,4-triazol-3-yl)ethyl]-3,5-bis(trifluoromethyl) benzamide]
≥ 80%: percent effect (mortality or growth inhibition) at 200 ppm [2] | percent effect (mortality or growth inhibition) at 200 ppm [4] | mortality at 200 ppm [5] | mortality at 500 ppm [6] | percent control (mortality, anti-feedant effect or growth inhibition) at 200 ppm [8] | mortality at 50 ppm [9]

CNC(=O)c1nc(C(C)N(C)C(=O)c2cc(C(F)(F)F)cc(C(F)(F)F)c2)n(-c2ncccn2)n1 (stereo not shown) [Compound P12, 5-[1-[[3.5-bis(trifluoromethyl)benzoyl]-methyl-amino]ethyl]-N-methyl-1-pyrimidin-2-yl-1,2,4-triazole-3-carboxamide]
≥ 80%: percent control (mortality, anti-feedant effect or growth inhibition) at 200 ppm [12] | mortality at 24 ppm [10] | mortality at 200 ppm [1] | mortality at 12 ppm [3] | percent effect (mortality or growth inhibition) at 200 ppm [7] | mortality at 200 ppm [11] | mortality at 50 ppm [9]

CC(NC(=O)c1cc(C(F)(F)F)cc(C(F)(F)F)c1)c1nc(S(C)(=O)=O)nn1-c1ncccn1 (stereo not shown) [Compound P21, N-[1-(5-methylsulfonyl-2-pyrimidin-2-yl-1,2,4-triazol-3-yl)ethyl]-3,5-bis(trifluoromethyl) benzamide]
≥ 80%: percent control (mortality, anti-feedant effect or growth inhibition) at 200 ppm [12] | mortality at 24 ppm [10] | mortality at 200 ppm [1] | percent effect (mortality or growth inhibition) at 200 ppm [2] | mortality at 12 ppm [3] | percent effect (mortality or growth inhibition) at 200 ppm [4] | percent control (mortality, anti-feedant effect or growth inhibition) at 200 ppm [8] | mortality at 50 ppm [9]

CC(c1nc(N=C(c2ccccc2)c2ccccc2)nn1-c1ncccn1)N(C)C(=O)c1cc(C(F)(F)F)cc(C(F)(F)F)c1 (stereo not shown) [Compound P22, N-[1-[5-(benzhydrylideneamino)-2-pyrimidin-2-yl-1,2,4-triazol-3-yl]ethyl]-N-methyl-3,5-bis(trifluoromethyl)benzamide]
≥ 80%: mortality at 200 ppm [1] | percent effect (mortality or growth inhibition) at 200 ppm [2] | mortality at 12 ppm [3] | percent effect (mortality or growth inhibition) at 200 ppm [4] | mortality at 200 ppm [5] | mortality at 500 ppm [6] | percent effect (mortality or growth inhibition) at 200 ppm [7] | percent control (mortality, anti-feedant effect or growth inhibition) at 200 ppm [8] | mortality at 50 ppm [9]

CC(c1nc(N)nn1-c1ncccn1)N(C)C(=O)c1cc(C(F)(F)F)cc(C(F)(F)F)c1 (stereo not shown) [Compound P7, N-[1-(5-amino-2-pyrimidin-2-yl-1,2,4-triazol-3-yl)ethyl]-N-methyl-3,5-bis(trifluoromethyl)benzamide]
≥ 80%: mortality at 200 ppm [1] | percent effect (mortality or growth inhibition) at 200 ppm [2] | mortality at 12 ppm [3] | percent effect (mortality or growth inhibition) at 200 ppm [4] | mortality at 200 ppm [5] | mortality at 500 ppm [6] | percent effect (mortality or growth inhibition) at 200 ppm [7] | percent control (mortality, anti-feedant effect or growth inhibition) at 200 ppm [8] | mortality at 50 ppm [9]
